{
  "source": "patent US20100099757A1",
  "about": "“DISULFIRAM DOSES AND TREATMENT REGIMEN SUITABLE FOR TREATMENT OF ANGIOGENESIS-DEPENDENT DISORDERS” (priority 2006, published 2010)",
  "key": {"[1]": {"target": "T1, aldehyde dehydrogenase (Rattus norvegicus, UniProt P11884)", "T1 sequence (P11884 20-519)": "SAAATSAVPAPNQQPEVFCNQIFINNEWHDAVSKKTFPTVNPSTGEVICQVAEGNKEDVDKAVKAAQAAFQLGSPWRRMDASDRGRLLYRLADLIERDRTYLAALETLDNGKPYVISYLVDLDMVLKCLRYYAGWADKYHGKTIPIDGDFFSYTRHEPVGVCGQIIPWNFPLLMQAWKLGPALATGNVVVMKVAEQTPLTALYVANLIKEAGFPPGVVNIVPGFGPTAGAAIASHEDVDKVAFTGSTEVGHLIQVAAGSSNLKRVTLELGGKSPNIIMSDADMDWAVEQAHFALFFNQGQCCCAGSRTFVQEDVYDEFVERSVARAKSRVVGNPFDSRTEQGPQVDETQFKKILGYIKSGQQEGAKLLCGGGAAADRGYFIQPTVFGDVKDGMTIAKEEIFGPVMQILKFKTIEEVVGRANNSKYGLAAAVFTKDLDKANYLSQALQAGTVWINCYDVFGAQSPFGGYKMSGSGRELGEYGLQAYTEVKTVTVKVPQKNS", "conditions": "cited from earlier work"}, "[2]": {"test_system": "non-small cell lung cancer", "assay": "Phase II trial of disulfuram with Cisplatin/Vinorelbine in non-small cell lung cancer", "type": "in vivo", "conditions": "120 mg daily (40 mg three times a day) for eighteen weeks, human patients", "excerpt": "A phase II, multicenter, randomized, double blind study was designed to assess the dose response of humans suffering from lung cancer to Disulfuram or a disulfuram-Cisplatin/Vinorelbine combination. Patients with histogically or cytologically documented advanced (i.e. stage Mb or stage IV), or recurrent non-small cell lung cancer, previously untreated with systemic anti-tumor therapy were selected for the study. The patients were randomly assigned to the standard first line hospital chemotherapy treatment (Cisplatin/Vinorelbine) with placebo or Cisplatin/Vinorelbine in combination with disulfuram. Treatment was provided in cycles of 21-day time periods until progression or for a maximum of 6 cycles.\nThe patients were further assessed for overall survival, time to progression and duration of response.\nStandard administration regimens for cisplatin and Vinorelbine were followed.\nPlacebo capsules included the lactose carrier but were devoid of disulfuram. Each patient received the disulfuram or placebo from the treating physician."}, "[3]": {"conditions": "cited from earlier work"}, "[4]": {"test_system": "cancer", "conditions": "cited from earlier work"}, "[5]": {"test_system": "angiogenesis", "conditions": "oral administration, CD1 nude mice; cited from earlier work"}, "[6]": {"test_system": "acetaldehyde dehydrogenase", "conditions": "cited from earlier work"}, "[7]": {"test_system": "bovine capillary endothelial (BCE) cells", "conditions": "cited from earlier work"}, "[8]": {"target": "Cu/Zn Suproxide dismutase (SOD-1) (Homo sapiens, UniProt P00441)", "sequence (P00441 whole entry, species assumed)": "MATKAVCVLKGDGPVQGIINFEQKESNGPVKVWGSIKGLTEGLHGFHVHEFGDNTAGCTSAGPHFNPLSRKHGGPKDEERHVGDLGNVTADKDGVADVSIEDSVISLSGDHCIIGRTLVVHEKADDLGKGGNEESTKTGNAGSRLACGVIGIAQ", "conditions": "both in vivo and in vitro; cited from earlier work"}, "[9]": {"test_system": "human malignant cell lines", "conditions": "combination of disulfuram and metal ions, in vitro; cited from earlier work"}, "[10]": {"test_system": "C6 glioma tumor", "conditions": "oral administration to mice; cited from earlier work"}, "[11]": {"conditions": "oral DSF, cited from earlier work"}, "[12]": {"test_system": "advanced stage IV metastatic melanoma", "conditions": "daily 250-500 mg disulfuram and 50 mg zinc gluconate; three months from onset of therapy; cited from earlier work"}, "[13]": {"test_system": "Lewis lung carcinoma", "conditions": "oral administration to mice; cited from earlier work"}, "[14]": {"conditions": "cultured BCE cells, prevented by copper and antioxidants"}},
  "data": [
    {"smiles": "CCN(CC)C(=O)SC", "note": "[Me-DTC, diethylthiomethylcarbamate]", "values": [
      {"measurement": "inhibition of aldehyde dehydrogenase", "setting": "[1]", "result": "most powerful irreversible inhibitor"}
    ]},
    {"smiles": "CCN(CC)C(=S)SSC(=S)N(CC)CC", "note": "[disulfuram, bis(diethylthiocarbamoyl) disulfide]", "values": [
      {"measurement": "time to progression and survival of non-small cell lung cancer", "setting": "[2]", "result": "extending time to progression and survival"},
      {"measurement": "soluble in alcohol", "setting": "[3]; alcohol", "result": "about 3.8 g in 100 ml"},
      {"measurement": "soluble in water", "setting": "[3]; water", "result": "about 20 mg in 100 ml"},
      {"measurement": "response rate, time to progression, or median survival", "setting": "[4]; about 2000 mg/subject disulfuram with 100 mg/m2 cisplatin once every 3-4 weeks, versus cisplatin alone", "result": "no statistically-significant difference"},
      {"measurement": "gastrointestinal and ototoxicities", "setting": "[4]; about 2000 mg/subject disulfuram with 100 mg/m2 cisplatin", "result": "enhanced"},
      {"measurement": "angiogenesis", "setting": "[5]", "result": "inhibited angiogenesis"},
      {"measurement": "concentration of acetaldehyde in the blood versus same amount of alcohol alone", "setting": "[6]; after alcohol intake under the influence of disulfuram", "result": "5 to 10", "unit": "times higher"},
      {"measurement": "onset of effect", "setting": "[6]; single dose unit", "result": "1 to 2", "unit": "h"},
      {"measurement": "time of peak effect", "setting": "[6]; single dose unit", "result": "about 12 hours"},
      {"measurement": "time effect is sustained", "setting": "[6]; single dose unit, depends on liver enzymes", "result": "12 to 72", "unit": "h"},
      {"measurement": "duration of effects of a single dose in some individuals", "setting": "[6]; single dose, some individuals", "result": "up to 2 weeks"},
      {"measurement": "level of glutathione", "setting": "[7]; BCE cells", "result": "reduced the level of glutathione"},
      {"measurement": "DNA synthesis", "setting": "[7]; [14]", "result": "inhibition of DNA synthesis"},
      {"measurement": "apoptosis", "setting": "[7]; [14]", "result": "induction of apoptosis"},
      {"measurement": "activity of Cu/Zn Suproxide dismutase (SOD-1)", "setting": "[8]", "result": "inhibits activity"},
      {"measurement": "proliferation of human malignant cell lines", "setting": "[9]", "result": "inhibited the proliferation"},
      {"measurement": "C6 glioma tumor development", "setting": "[10]", "result": "significant inhibition"},
      {"measurement": "T1/2", "setting": "[11]; elimination kinetics", "result": 7.3, "unit": "h"},
      {"measurement": "average time to reach maximum plasma concentration", "setting": "[11]", "result": "8 to 10", "unit": "h"},
      {"measurement": "reduction in tumor size", "setting": "[12]", "result": "> 50", "unit": "%"},
      {"measurement": "reduction in the metastatic load of Lewis lung carcinoma", "setting": "[13]", "result": "10-19 fold"}
    ]}
  ]
}
